Experimental data reported in publication PMC3355656 (2012).

Biological target: CDK9 (Homo sapiens, UniProt P50750)
Test: DSF thermal shift
Type: binding

Sequence of CDK9 (P50750 1-330): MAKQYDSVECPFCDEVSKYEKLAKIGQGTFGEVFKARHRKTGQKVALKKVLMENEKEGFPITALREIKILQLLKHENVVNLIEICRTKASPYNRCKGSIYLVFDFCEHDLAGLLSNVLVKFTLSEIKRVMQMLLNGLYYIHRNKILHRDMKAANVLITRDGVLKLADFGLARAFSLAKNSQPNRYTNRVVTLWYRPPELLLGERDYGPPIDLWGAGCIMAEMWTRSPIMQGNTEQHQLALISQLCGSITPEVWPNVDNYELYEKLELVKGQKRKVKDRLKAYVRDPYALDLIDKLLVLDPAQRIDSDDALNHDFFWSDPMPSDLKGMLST
Sequence of CDK9 (O60563 1-259 partner): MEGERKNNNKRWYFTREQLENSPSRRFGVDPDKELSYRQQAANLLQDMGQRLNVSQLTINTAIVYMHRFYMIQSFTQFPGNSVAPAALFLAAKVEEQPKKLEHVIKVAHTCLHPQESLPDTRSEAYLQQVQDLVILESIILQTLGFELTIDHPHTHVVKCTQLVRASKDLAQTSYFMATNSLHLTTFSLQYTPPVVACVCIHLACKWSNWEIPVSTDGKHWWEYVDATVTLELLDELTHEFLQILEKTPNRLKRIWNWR

## OC[C@H]1O[C@@H](n2cnc3cc(Cl)c(Cl)cc32)[C@H](O)[C@@H]1O [DRB]
  DSF thermal shift (no Kd): we tested the ability of known CDK9 inhibitors (DRB, CAN508, (S)-CR8, Roscovitine, Staurosporine
